Earlier results, collected in patent publication US6696276B2, “Vasopermeability-enhancing conjugates” (priority 1988, dated 2004).

Details: as little as

| Compound | amount eliciting erythema and wheal formation [nmol] |
| --- | --- |
| CCCCC/C=C\C\C=C/C=C/C=C/[C@@H](SC[C@H](NC(=O)CC[C@H](N)C(=O)O)C(=O)NCC(=O)O)[C@@H](O)CCCC(=O)O [leukotriene C4] | 1 |
| CCCCC/C=C\C\C=C/C=C/C=C/[C@@H](SC[C@H](N)C(=O)O)[C@@H](O)CCCC(=O)O [leukotriene E4] | 1 |
| CCCCC/C=C\C\C=C/C=C/C=C/[C@@H](SC[C@H](N)C(=O)NCC(=O)O)[C@@H](O)CCCC(=O)O [leukotriene D4] | 1 |
